Values quoted from earlier work, collected in US10813882B1, “In situ gelling formulation for reduced initial drug burst” (King Abdulaziz University, priority 2019, dated 2020).

Columns and labels:
[1] = system: plasma protein
[2] = in vivo

CC(C)c1nc(N(C)S(C)(=O)=O)nc(-c2ccc(F)cc2)c1/C=C/[C@@H](O)C[C@@H](O)CC(=O)O [RSV, Rosuvastatin]
bound to plasma protein [1]: 88%
solubility in organic solvent such as DMSO and DMF (DMSO, dimethyl formamide): soluble
solubility in ethanol (ethanol): marginally soluble
bioavailability [2]: 20%
effect of food on the amount absorbed [2]: does not affect
time to maximum plasma level [2]: 3 to 5 h
